Measurements published in PMC8623273, “Novel N7-Arylmethyl Substituted Dinucleotide mRNA 5′ cap Analogs: Synthesis and Evaluation as Modulators of Translation” (Pharmaceutics, 2021).
Read-outs that look alike come from different tables or passages of the source.

How the values were obtained:
hDcpS = target: T1, hDcpS (Homo sapiens, UniProt Q96C86); type: in vitro ADME; settings: 100 μM compound, 20 nM hDcpS; for hDcpS Assay: fraction of the cap remaining after 1 h incubation with DcpS: 37 °C
T1 sequence (Q96C86 1-337): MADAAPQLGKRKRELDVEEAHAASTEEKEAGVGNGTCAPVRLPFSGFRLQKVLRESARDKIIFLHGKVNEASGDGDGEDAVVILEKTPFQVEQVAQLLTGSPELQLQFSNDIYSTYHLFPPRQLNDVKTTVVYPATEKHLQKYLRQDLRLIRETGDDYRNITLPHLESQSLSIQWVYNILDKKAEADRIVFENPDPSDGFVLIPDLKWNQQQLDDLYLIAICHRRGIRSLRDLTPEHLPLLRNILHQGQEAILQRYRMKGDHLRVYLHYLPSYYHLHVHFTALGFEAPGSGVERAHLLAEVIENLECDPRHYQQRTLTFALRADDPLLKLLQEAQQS
Method: Susceptibility to decapping scavenger (DcpS) is one of the factors that could potentially influence the cellular stability of mono- and dinucleotide cap analogs designed as translational inhibitors. Therefore, we studied the susceptibility of arylmethyl-modified dinucleotides to DcpS. The compounds (at 100 μM concentration each) were incubated with 20 nM of hDcpS, and the hydrolysis progress at different time points was analyzed via RP HPLC and compared to m^7GpppG (Figure 4 and Figure S3).
The enzymatic activity of DcpS was assayed at 37 °C in 50 mM Tris∙HCl, pH 7.6 containing 200 mM KCl, 0.5 mM EDTA. DcpS cleavage assays were carried out with 100 μM of the tested compound and 20 nM (monomer) of the hDcpS. Enzymatic reaction progress was examined after 30, 60 and 180 min. As a control, a sample was examined before adding enzyme. Aliquots of 15 μL were terminated by heat inactivation of the enzyme for 3 min at 98 °C. The samples were analyzed via RP HPLC equipped with a Supelcosil LC-18-T column (4.6 × 250 mm, 5 μm, flow rate 1.3 mL/min).

eIF4E = eIF4E (Mus musculus, UniProt P63073); test: fluorescence anisotropy (FA) competition assay with eIF4E; type: binding; settings: Table S2; for EC50: 25 °C, probe m^7GTP-triazol-FAM 10 nM, eIF4E 100 nM; for Kd: calculated from EC50
Sequence of eIF4E (P63073 whole entry): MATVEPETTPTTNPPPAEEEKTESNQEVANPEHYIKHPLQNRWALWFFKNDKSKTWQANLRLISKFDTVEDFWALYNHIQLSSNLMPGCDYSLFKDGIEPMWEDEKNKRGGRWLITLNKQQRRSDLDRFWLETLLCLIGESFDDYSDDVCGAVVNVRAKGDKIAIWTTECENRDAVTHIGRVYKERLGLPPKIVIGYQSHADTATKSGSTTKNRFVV
Description: The KD values determined from the high-throughput assay were in qualitative agreement with data from time-synchronized fluorescence quenching titration, justifying the use of the former for evaluation of the whole set of caps. […] To additionally verify the binding affinity data (especially for 1q and 1r, as mentioned above), we determined the binding affinities for all analogs using another independent assay, based on fluorescence anisotropy. The KD data determined by this method correlated very well with the results reported above (Table S2, Figure S2).
Fractions of the compounds were independently tested using a different method based on fluorescence anisotropy (FA). These experiments were performed on a Synergy™ H1 plate reader in 96-well, black, non-binding assay plates. Each well contained appropriate buffer (50 mM HEPES/KOH pH 7.2, 100 mM KCl, 0.5 mM EDTA i 1 mM DTT), the fluorescent probe m^7GTP-triazol-FAM (10 nM), substrate (in a 2.08-fold dilution, starting from 60 μM) and protein eIF4E (100 nM). The m^7GTP-triazol-FAM was synthesized as describer earlier. All measurements were performed at 25 °C. Determined EC50 values were means ± SD of three independent experiments. The dissociation constants KD were then calculated using the equation described by Nikolovska-Coleska as described earlier.

[1] = tested on: cap-dependent translation in rabbit reticulocyte lysate (RRL); test: inhibition of cap-dependent translation in rabbit reticulocyte lysate (RRL); type: biochemical
Method: After determining the affinity for eIF4E and susceptibility to DcpS, we evaluated the analogs as inhibitors of protein translation in rabbit reticulocyte lysates (RRL). To enable better assessment of how these two factors influenced inhibitory properties, we performed two sets of experiments. In the first set, cap analogs were added to RRL along with luciferase-encoding reporter mRNA followed by a protein activity (luminescence) readout after 1 h, whereas in the second set cap analogs were additionally preincubated in RRL for 1 h prior to addition of mRNA. Based on previously reported findings, we expected that in the second experimental setup, cap analogs susceptible to DcpS would lose their inhibitory potency, whereas compounds resistant to DcpS would remain similarly active.
The ability of the N7-benzyl cap analogues to inhibit cap-dependent translation was assayed in a rabbit reticulocyte lysate (RRL) system. Two sets of experiments were performed. In both variants, in vitro translation reactions (10 μL total volume) contained a tested cap analog (inhibitor) and an in vitro transcribed, ARCA-capped mRNA encoding Gaussia luciferase at 1 μg/mL final concentration. In experimental variant A, cap analogues at concentrations in the range of 0 to 64 μM and mRNA were added to the reaction mixture at the same time. Reactions were incubated at 30 °C for 60 min and then stopped by freezing in liquid nitrogen. In experimental variant B, the cap analogues were added at concentrations in the range of 0 to 160 μM. Reactions were pre-incubated at 30 °C for 60 min prior to addition of mRNA; after addition of mRNA incubation was continuous at 30 °C for 60 min and then stopped by freezing in liquid nitrogen. To detect luminescence from Gaussia luciferase, 50 μL of 10 ng/mL h-coelenterazine (NanoLight, Norman, OK, USA) in PBS was added to 10 μL of RRL and the luminescence was measured with a Synergy H1 (BioTek, Winooski, VT, USA) microplate reader.

[2] = RRL, cap analog and mRNA added at the same time (no pre-incubation), 60 min, 30 °C, read-out: Translation Inhibition IC50
[3] = cap analog incubated in RRL for 1 h prior to adding mRNA, read-out: Translation Inhibition IC50 (value in brackets) (converted)

Row | Structure (SMILES) | susceptibility to hDcpS (in words) (hDcpS) | hDcpS Assay: fraction of the cap remaining after 1 h incubation with DcpS (hDcpS) | EC50 (eIF4E) [nM] | Kd (eIF4E) [nM] | IC50 [1, 2] [nM] | IC50 [1, 3] [nM] | conversion after 1 h of incubation with hDcpS (hDcpS)
1 | Nc1nc(O)c2c(n1)n([C@@H]1O[C@H](COP(=O)(O)OP(=O)([O-])OP(=O)(O)OC[C@H]3O[C@@H](n4cnc5c(=O)[nH]c(N)nc54)[C@H](O)[C@@H]3O)[C@@H](O)[C@H]1O)c[n+]2Cc1ccc(C(F)(F)F)cc1 [1l, 4-CF3-Bn^7GpppG] | Lower susceptibility to hydrolysis | 0.87 | 590 ± 40 | 194 ± 17 | 9700 ± 2000 | 40000 | –
2 | Cn1c[n+]([C@@H]2O[C@H](COP(=O)(O)OP(=O)([O-])OP(=O)(O)OC[C@H]3O[C@@H](n4cnc5c(=O)[nH]c(N)nc54)[C@H](O)[C@@H]3O)[C@@H](O)[C@H]2O)c2nc(N)[nH]c(=O)c21 [m^7GpppG, reference compound] | – | 0.49 | 410 ± 10 | 127 ± 5 | 11400 ± 2400 | 30100 | approximately 50%
3 | Nc1nc(O)c2c(n1)n([C@@H]1O[C@H](COP(=O)(O)OP(=O)([O-])OP(=O)(O)OC[C@H]3O[C@@H](n4cnc5c(=O)[nH]c(N)nc54)[C@H](O)[C@@H]3O)[C@@H](O)[C@H]1O)c[n+]2Cc1ccc(Cl)cc1 [1h, 4-Cl-Bn^7GpppG] | – | 0.67 | 340 ± 140 | 102 ± 53 | 18700 ± 3000 | 18700 ± 3600 | ~70%
4 | CO[C@@H]1[C@H](O)[C@@H](COP(=O)(O)OP(=O)([O-])OP(=O)(O)OC[C@H]2O[C@@H](n3cnc4c(=O)[nH]c(N)nc43)[C@H](O)[C@@H]2O)O[C@H]1n1c[n+](Cc2ccccc2)c2c(O)nc(N)nc21 [1q, Bn^7GmpppG] | resistant to hDcpS | 0.97 | 180 ± 30 | 40 ± 11 | 3700 ± 500 | 8200 | –
5 | Nc1nc(O)c2c(n1)n([C@@H]1O[C@H](COP(=O)(O)OP(=O)([O-])OP(=O)(O)OC[C@H]3O[C@@H](n4cnc5c(=O)[nH]c(N)nc54)[C@H](O)[C@@H]3O)[C@@H](O)[C@H]1O)c[n+]2Cc1ccccc1 [1a, Bn^7GpppG] | – | 0.51 | 270 ± 20 | 74 ± 23 | 7400 ± 1400 | 9600 | approximately 50%
6 | Nc1nc(O)c2c(n1)n([C@@H]1O[C@H](COP(=O)(O)OP(=O)([O-])OP(=O)(O)OC[C@H]3O[C@@H](n4cnc5c(=O)[nH]c(N)nc54)[C@H](O)[C@@H]3O)[C@@H](O)[C@H]1O)c[n+]2Cc1ccc(F)c(F)c1 [1k, 3,4-di-F-Bn^7GpppG] | – | 0.70 | 880 ± 80 | 301 ± 30 | 8200 ± 1100 | 21400 | ~70%
7 | CO[C@@H]1[C@H](O)[C@@H](COP(=O)(O)OP(=O)([O-])OP(=O)(O)OC[C@H]2O[C@@H](n3cnc4c(=O)[nH]c(N)nc43)[C@H](O)[C@@H]2O)O[C@H]1n1c[n+](Cc2ccc(Cl)cc2)c2c(O)nc(N)nc21 [1r, 4-Cl-Bn^7GmpppG] | resistant to hDcpS | 0.99 | 190 ± 20 | 45 ± 7 | 6000 ± 900 | – | –
8 | Nc1nc(O)c2c(n1)n([C@@H]1O[C@H](COP(=O)(O)OP(=O)([O-])OP(=O)(O)OC[C@H]3O[C@@H](n4cnc5c(=O)[nH]c(N)nc54)[C@H](O)[C@@H]3O)[C@@H](O)[C@H]1O)c[n+]2Cc1ccc(F)cc1 [1g, 4-F-Bn^7GpppG] | – | 0.76 | 240 ± 80 | 64 ± 31 | 6000 ± 900 | 21400 | ~70%
9 | CC(C)c1ccc(C[n+]2cn([C@@H]3O[C@H](COP(=O)(O)OP(=O)([O-])OP(=O)(O)OC[C@H]4O[C@@H](n5cnc6c(=O)[nH]c(N)nc65)[C@H](O)[C@@H]4O)[C@@H](O)[C@H]3O)c3nc(N)nc(O)c32)cc1 [1e, 4-iPrBn^7GpppG] | Lower susceptibility to hydrolysis | 0.94 | 1300 ± 90 | 444 ± 33 | 15200 ± 3100 | – | –
10 | Nc1nc(O)c2c(n1)n([C@@H]1O[C@H](COP(=O)(O)OP(=O)([O-])OP(=O)(O)OC[C@H]3O[C@@H](n4cnc5c(=O)[nH]c(N)nc54)[C@H](O)[C@@H]3O)[C@@H](O)[C@H]1O)c[n+]2Cc1ccc([N+](=O)[O-])cc1 [1n, 4-NO2-Bn^7GpppG] | – | 0.75 | 520 ± 120 | 168 ± 43 | 28200 ± 7500 | – | ~70%
11 | Nc1nc(O)c2c(n1)n([C@@H]1O[C@H](COP(=O)(O)OP(=O)([O-])OP(=O)(O)OC[C@H]3O[C@@H](n4cnc5c(=O)[nH]c(N)nc54)[C@H](O)[C@@H]3O)[C@@H](O)[C@H]1O)c[n+]2Cc1ccc(Br)cc1 [1i, 4-Br-Bn^7GpppG] | – | 0.60 | 210 ± 10 | 52 ± 3 | 6400 ± 1000 | 22200 | ~70%
12 | Cc1cccc(C[n+]2cn([C@@H]3O[C@H](COP(=O)(O)OP(=O)([O-])OP(=O)(O)OC[C@H]4O[C@@H](n5cnc6c(=O)[nH]c(N)nc65)[C@H](O)[C@@H]4O)[C@@H](O)[C@H]3O)c3nc(N)nc(O)c32)c1 [1c, 3-MeBn^7GpppG] | very slowly hydrolyzed | 0.84 | 670 ± 20 | 222 ± 8 | 6600 ± 800 | 8200 | –
